The source of these data is US12454529B2, “Piperazine cyclic ureas” (SIRONAX LTD., priority 2020, dated 2025).

The term pEC50 denotes the negative decadic logarithm of the EC50, by convention in mol/L.

pEC50: −log10 of the molar value.

The test system of the first test is HT-29 cells. Kind of test: HT-29 cell necrosis/necroptosis inhibition (TNF-α + SMAC mimetic + zVAD-FMK; CellTiter-Glo cell viability). It is filed as cell-based. Conditions: Homo sapiens; HT-29 cells, TNF-α 10 ng/ml + SMAC mimetic 6 μM + zVAD-FMK 10 μM, 20 hours; geometric mean, 10 points in duplicate; read-out: EC50 (Cell activity; Necrosis/Necroptosis Inhibitory Activity, Compounds 1-142). An outline of the steps:
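HT-29 cells (~5,000/well) were switched to FBS-free McCOY's 5A holding TNF-α (10 ng/ml), SMAC mimetic (6 μM) and zVAD-FMK (10 μM), then dosed with a 10-point 1:3 series for 20 h at 37 °C. CellTiter-Glo luminescence gave viability; geometric mean EC50 from duplicates.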
In the case of `Cc1nc(C)n(-c2nc(N3CCN(C(=O)N4N=CC[C@H]4c4cc(F)cc(C#N)c4)CC3)ncc2F)n1` [Compound 47, (S)-3-(1-(4-(4-(3,5-dimethyl-1H-1,2,4-triazol-1-yl)-5-fluoropyrimidin-2-yl)piperazine-1-carbonyl)-4,5-dihydro-1H-pyrazol-5-yl)-5-fluorobenzonitrile], the pEC50 was 7.00 to 10.00.
Turning to `CCOC(=O)c1nc(C)n(-c2nc(N3CCN(C(=O)N4N=CC[C@H]4c4cc(F)cc(C#N)c4)CC3)ncc2F)n1` [Compound 129, ethyl (S)-1-(2-(4-(5-(3-cyano-5-fluorophenyl)-4,5-dihydro-1H-pyrazole-1-carbonyl)piperazin-1-yl)-5-fluoropyrimidin-4-yl)-5-methyl-1H-1,2,4-triazole-3-carboxylate], the pEC50 was 7.00 to 10.00.
For the compound `O=C(N1CCN(c2ncc(F)c(-c3cc[nH]n3)n2)CC1)N1N=CC[C@H]1c1cc(F)cc(F)c1` [Compound 7, (S)-(5-(3,5-difluorophenyl)-4,5-dihydro-1H-pyrazol-1-yl)(4-(5-fluoro-4-(1H-pyrazol-3-yl)pyrimidin-2-yl)piperazin-1-yl)methanone], the pEC50 is 7.00 to 10.00.
Turning to `O=C(N1CCN(c2nccc(-c3ccc[nH]3)n2)CC1)N1N=CC[C@H]1c1cc(F)cc(F)c1` [Compound 6, (S)-(4-(4-(1H-pyrrol-2-yl)pyrimidin-2-yl)piperazin-1-yl)(5-(3,5-difluorophenyl)-4,5-dihydro-1H-pyrazol-1-yl)methanone], the pEC50 was 7.00 to 10.00.
Regarding `O=C(N1CCN(c2nccc(C3=NCCN3)n2)CC1)N1N=CC[C@H]1c1cc(F)cc(F)c1` [Compound 3, (S)-(5-(3,5-difluorophenyl)-4,5-dihydro-1H-pyrazol-1-yl)(4-(4-(4,5-dihydro-1H-imidazol-2-yl)pyrimidin-2-yl)piperazin-1-yl)methanone], the pEC50 is 7.00 to 10.00.

The same test, now with this note: Homo sapiens; HT-29 cells, TNF-α 10 ng/ml + SMAC mimetic 6 μM + zVAD-FMK 10 μM, 20 hours; geometric mean, 10 points in duplicate; read-out: EC50 (Cell activity; Necrosis/Necroptosis Inhibitory Activity, Compounds 143-323).
`Cc1c(N)nn(C)c1-c1nc(N2CCN(C(=O)N3N=CC[C@H]3c3cc(F)cc(F)c3)CC2)ncc1F` [Compound 155, (S)-(4-(4-(3-amino-1,4-dimethyl-1H-pyrazol-5-yl)-5-fluoropyrimidinyl)piperazin-1-yl)(5-(3,5-difluorophenyl)-4,5-dihydro-1H-pyrazol-1-yl)methanone]: the pEC50 was 7.00 to 10.00.
The same measure, in the same setting: next, `Cn1cnc(-c2ccc(F)c(N3CCN(C(=O)N4N=CC[C@H]4c4cc(F)cc(C#N)c4)CC3)n2)n1` [Compound 177, (S)-3-fluoro-5-(1-(4-(3-fluoro-6-(1-methyl-1H-1,2,4-triazol-3-yl)pyridin-2-yl)piperazine-1-carbonyl)-4,5-dihydro-1H-pyrazol-5-yl)benzonitrile]: 6.00 to 7.00; `Cc1nc(C)n(-c2nc(N3CCN(C(=O)N4N=CC[C@H]4c4ncc(C)s4)CC3)ncc2F)n1` [Compound 241, (S)-(4-(4-(3,5-dimethyl-1H-1,2,4-triazol-1-yl)-5-fluoropyrimidin-2-yl)piperazin-1-yl)(5-(5-methylthiazol-2-yl)-4,5-dihydro-1H-pyrazol-1-yl)methanone]: 7.00 to 10.00.
The same measure, in the same setting: next, `Cc1nc(C)n(-c2cc(N3CCN(C(=O)N4N=CC[C@H]4c4cc(F)cc(F)c4)CC3)c(F)cn2)n1` [Compound 271, (S)-(5-(3,5-difluorophenyl)-4,5-dihydro-1H-pyrazol-1-yl)(4-(2-(3,5-dimethyl-1H-1,2,4-triazol-1-yl)-5-fluoropyridin-4-yl)piperazin-1-yl)methanone]: 7.00 to 10.00; `O=C(N1CCN(c2ncc(F)c(-n3cnc(C(F)(F)F)n3)n2)CC1)N1N=CC[C@H]1c1cncc(F)c1` [Compound 314, (S)-(4-(5-fluoro-4-(3-(trifluoromethyl)-1H-1,2,4-triazol-1-yl)pyrimidin-2-yl)piperazin-1-yl)(5-(5-fluoropyridin-3-yl)-4,5-dihydro-1H-pyrazol-1-yl)methanone]: 7.00 to 10.00; `Cn1nc(C#N)nc1-c1nc(N2CCN(C(=O)N3N=CCC3c3cc(F)cc(F)c3)CC2)ncc1F` (centres unmarked) [Compound 228, 5-(2-(4-(5-(3,5-difluorophenyl)-4,5-dihydro-1H-pyrazole-1-carbonyl)piperazin-1-yl)-5-fluoropyrimidin-4-yl)-1-methyl-1H-1,2,4-triazole-3-carbonitrile]: 7.00 to 10.00.
